From patent US20100317607A1, “USE OF COMPOUNDS FOR PREPARING ANTI-TUBERCULOSIS AGENTS” (INFECTIOUS DISEASE RESEARCH INSTITUTE, priority 2007, published 2010)
≈ marks a conversion by molar mass, not a printed value. Where a name gives a salt, the structure may show the parent alone. Read-outs that look alike come from different tables or passages of the source.

What was measured:
[1] = tested on: non replicating phase of M. tuberculosis (H37Rv with a plasmid with an acetimidase promoter driving a luciferase gene); assay: microbe, parasite or virus in culture; format: cell-based; settings: non replicating M. tuberculosis H37Rv luciferase strain; for MIC: Mycobacterium tuberculosis, read-out: LORA (TB growth inhibition, MIC)
[2] = tested on: H37Rv strain of M. tuberculosis; assay: Alamar Blue Susceptibility Test (MABA); format: cell-based; settings: for MIC: Mycobacterium tuberculosis, read-out: MABA (TB growth inhibition, colourimetric assay)
[3] = H37Rv strain of M. tuberculosis, Alamar Blue

Row | Compound | MIC [2, 3] | further results
1 | COC(=O)c1ccc(CNc2nc(N3CCCCC3)nc3ccccc23)cc1 [Compound 93, Methyl 4-((2-(piperidin-1-yl)quinazolin-4-ylamino)methyl)benzoate] | < 10 µM | MIC [1]: 50 to 128 µM (≈ 18.8 to 48.2 µg/mL)
2 | CC(C)(Nc1nc(N2CCCCC2)nc2ccccc12)c1ccc(F)cc1 [Compound 120, N-(2-(4-Fluorophenyl)propan-2-yl)-2-(piperidin-1-yl)quinazolin-4-amine] | < 10 µM | MIC [1]: 10 to 50 µM (≈ 3.64 to 18.2 µg/mL)
3 | Clc1cccc(CNc2nc(N3CCCCC3)nc3ccccc23)c1 [Compound 41, N-(3-Chlorobenzyl)-2-(piperidin-1-yl)quinazolin-4-amine] | < 10 µM | MIC [1]: 10 to 50 µM (≈ 3.53 to 17.6 µg/mL)
4 | c1ccc2c(NC3C4CC5CC(C4)CC3C5)nc(N3CCOCC3)nc2c1 (centres unmarked) [Compound 16, N-(2′-Adamantyl)-2-morpholinoquinazolin-4-amine] |  | LORA (TB growth inhibition, MIC) [1]: +++ (10-50 μM=+++); MABA (TB growth inhibition, colourimetric assay) [2, 3]: +++ (10-50 μM=+++)
5 | CN(Cc1ccccc1)c1nc(N2CCCCC2)nc2ccccc12 [Compound 35, N-Benzyl-N-methyl-2-(piperidin-1-yl)quinazolin-4-amine] | < 10 µM | MIC [1]: < 10 µM
6 | O=C(Nc1nc(NCc2ccccc2)c2ccccc2n1)c1ccccc1 [Compound 73, N-(4-(Benzylamino)quinazolin-2-yl)benzamide] | 50 to 128 µM (≈ 17.7 to 45.4 µg/mL) | 
7 | Fc1ccc(CNc2nc(N3CCC(F)(F)CC3)c3ccccc3n2)cc1 [Compound 149, 4-(4,4-Difluoropiperidin-1-yl)-N-(4-fluorobenzyl)quinazolin-2-amine hydrochloride] | 10 to 50 µM | 
8 | OC[C@@H]1CCCN1c1nc(NCc2ccccc2)c2ccccc2n1 [Compound 177, (S)-(1-(4-(Benzylamino)quinazolin-2-yl)pyrrolidin-2-yl)methanol] | 50 to 128 µM (≈ 16.7 to 42.8 µg/mL) | 
9 | c1ccc2c(c1)CCN(c1nc(N3CCCC3)nc3ccccc13)C2 [Compound 186, 4-(3,4-Dihydroisoquinolin-2(1H)-yl)-2-(pyrrolidin-1-yl)quinazoline] | 10 to 50 µM (≈ 3.3 to 16.5 µg/mL) | 
10 | Cc1ccc(C(C)(C)Nc2nc(N3CCCCC3)nc3ccccc23)cc1 [Compound 102, 2-(Piperidin-1-yl)-N-(2-p-tolylpropan-2-yl)quinazolin-4-amine] | 10 to 50 µM (≈ 3.61 to 18 µg/mL) | 
11 | COC[C@H](Cc1ccccc1)Nc1nc(N2CCCCC2)nc2ccccc12 [Compound 144, (S)—N-(1-Methoxy-3-phenylpropan-2-yl)-2-(piperidin-1-yl)quinazolin-4-amine] | 10 to 50 µM (≈ 3.77 to 18.8 µg/mL) | 
12 | Fc1ccc(Nc2nc(N3CCCC3)nc3nccnc23)cc1 [Compound 185, N-(4-Fluorophenyl)-2-(pyrrolidin-1-yl)pteridin-4-amine] | 50 to 128 µM (≈ 15.5 to 39.7 µg/mL) | 
13 | Fc1ccc(CNc2nc(NCc3ccc(F)cc3)c3ccccc3n2)cc1 [Compound 119, N^2,N^4-bis(4-Fluorobenzyl)quinazoline-2,4-diamine hydrochloride] | 10 to 50 µM | 
14 | COc1cc2nc(NCc3ccc(F)cc3)nc(NCc3ccc(F)cc3)c2cc1OC [Compound 168, N^2,N^4-bis(4-Fluorobenzyl)-6,7-dimethoxyquinazoline-2,4-diamine] | 10 to 50 µM (≈ 4.36 to 21.8 µg/mL) | 
15 | Fc1ccc(CNc2nc(N3Cc4ccccc4C3)nc3ccccc23)cc1 [Compound 179, N-(4-Fluorobenzyl)-2-(isoindolin-2-yl)quinazolin-4-amine hydrochloride] | < 10 µM | 
16 | O=[N+]([O-])c1ccc(NCCNc2nc(N3CCOCC3)nc3ccccc23)cc1 [Compound 7, N^1-(2-Morpholinoquinazolin-4-yl)-N^2-(4-nitrophenyl)ethane-1,2-diamine] | 50 to 128 µM (≈ 19.7 to 50.5 µg/mL) | 
17 | Oc1ccc(CNc2nc(N3CCCCC3)nc3ccccc23)cc1 [Compound 164, 4-((2-(Piperidin-1-yl)quinazolin-4-ylamino)methyl)phenol] | 10 to 50 µM (≈ 3.34 to 16.7 µg/mL) | 
18 | Cc1ccc(CNc2nc(N3CCCCC3)nc3ccccc23)o1 [Compound 167, N-((5-Methylfuran-2-yl)methyl)-2-(piperidin-1-yl)quinazolin-4-amine] | < 10 µM | 
19 | Fc1ccc(CNc2nc(N3CCc4ccc(Br)cc4C3)nc3ccccc23)cc1 [Compound 193, 2-(7-Bromo-3,4-dihydroisoquinolin-2(1H)-yl)-N-(4-fluorobenzyl)quinazolin-4-amine] | 10 to 50 µM (≈ 4.63 to 23.2 µg/mL) | 
20 | CC(C)(Cc1ccc(F)cc1)Nc1nc(N2CCCCC2)nc2ccccc12 [Compound 108, N-(1-(4-Fluorophenyl)-2-methylpropan-2-yl)-2-(piperidin-1-yl)quinazolin-4-amine] | 10 to 50 µM (≈ 3.78 to 18.9 µg/mL) | 
21 | CN(Cc1ccccc1)c1nc(NCc2ccccc2)c2ccccc2n1 [Compound 29, N^2,N^4-Dibenzyl-N^2-methylquinazoline-2,4-diamine] | 10 to 50 µM (≈ 3.54 to 17.7 µg/mL) | 
22 | FC1(F)CCN(c2nc(NCc3ccc(OC(F)(F)F)cc3)c3ccccc3n2)CC1 [Compound 163, 2-(4,4-Difluoropiperidin-1-yl)-N-(4-(trifluoromethoxy)benzyl)quinazolin-4-amine] | 10 to 50 µM (≈ 4.38 to 21.9 µg/mL) | 
23 | c1ccc2c(NCc3ccsc3)nc(N3CCCCC3)nc2c1 [Compound 191, 2-(Piperidin-1-yl)-N-(thiophen-3-ylmethyl)quinazolin-4-amine] | 10 to 50 µM (≈ 3.24 to 16.2 µg/mL) | 

Row | Compound | MIC [2, 3] | further results
24 | CC(C)(Nc1nc(N2CCCC2)nc2ccccc12)c1ccc(F)cc1 [Compound 121, N-(2-(4-Fluorophenyl)propan-2-yl)-2-(pyrrolidin-1-yl)quinazolin-4-amine] | 10 to 50 µM (≈ 3.5 to 17.5 µg/mL) | 
25 | Clc1ccc2nc(N3CCCCC3)nc(NCc3ccccc3)c2c1 [Compound 71, N-Benzyl-6-chloro-2-(piperidin-1-yl)quinazolin-4-amine] | 10 to 50 µM (≈ 3.53 to 17.6 µg/mL) | 
26 | O=C(C1CC1)N1CCN(c2nc(NCc3ccc(F)cc3)c3ccccc3n2)CC1 [Compound 202, Cyclopropyl(4-(4-(4-fluorobenzylamino)quinazolin-2-yl)piperazin-1-yl)methanone hydrochloride] | 50 to 128 µM | 
27 | c1ccc(Nc2nc(N3CCCCC3)nc3ccccc23)cc1 [Compound 72, N-Phenyl-2-(piperidin-1-yl)quinazolin-4-amine hydrochloride] | 50 to 128 µM | 
28 | Cc1ccccc1CNc1nc(N2CCCCC2)nc2ccccc12 [Compound 104, N-(2-Methylbenzyl)-2-(piperidin-1-yl)quinazolin-4-amine hydrochloride] | 10 to 50 µM | 
29 | c1ccc2c(c1)CCN(c1nc(N3CCCCC3)c3ccccc3n1)C2 [Compound 113, 2-(3,4-Dihydroisoquinolin-2(1H)-yl)-4-(piperidin-1-yl)quinazoline hydrochloride] | 10 to 50 µM | 
30 | O=C(N1CCCC1)N1CCN(c2nc(NCc3ccc(F)cc3)c3ccccc3n2)CC1 [Compound 205, (4-(4-(4-Fluorobenzylamino)quinazolin-2-yl)piperazin-1-yl)(pyrrolidin-1-yl)methanone hydrochloride] | 50 to 128 µM | 
31 | Fc1ccc(CNc2nc(N3CCCCC3)nc3ncccc23)cc1 [Compound 174, N-(4-Fluorobenzyl)-2-(piperidin-1-yl)pyrido[2,3-d]pyrimidin-4-amine] | 10 to 50 µM (≈ 3.37 to 16.9 µg/mL) | 
32 | c1ccc(CNc2nc(Nc3ccccc3)nc3ccccc23)cc1 [Compound 23, N^4-Benzyl-N^2-phenylquinazoline-2,4-diamine] | 10 to 50 µM (≈ 3.26 to 16.3 µg/mL) | 
33 | OC[C@@H]1CCCN1c1nc(NCc2ccc(F)cc2)c2ccccc2n1 [Compound 198, (S)-(1-(4-(4-Fluorobenzylamino)quinazolin-2-yl)pyrrolidin-2-yl)methanol] | 50 to 128 µM (≈ 17.6 to 45.1 µg/mL) | 
34 | Fc1ccc(CNc2nc(N3CCCCC3)nc3cccc(Cl)c23)cc1 [Compound 183, 5-Chloro-N-(4-fluorobenzyl)-2-(piperidin-1-yl)quinazolin-4-amine] | 10 to 50 µM (≈ 3.71 to 18.5 µg/mL) | 
35 | FC(F)(F)c1ccc(CNc2nc(N3CCOCC3)nc3ccccc23)cc1 [Compound 77, 2-Morpholino-N-(4-(trifluoromethyl)benzyl)quinazolin-4-amine] | 10 to 50 µM (≈ 3.88 to 19.4 µg/mL) | 
36 | Nc1nc(N)c2ccccc2n1 [Comparative compound 2, Quinazoline-2,4-diamine, reference compound] |  | MABA (TB growth inhibition, colourimetric assay) [2, 3]: −
37 | COc1cc2nc(N3CCCCC3)nc(NCc3ccccc3)c2cc1OC [Compound 70, N-Benzyl-6,7-dimethoxy-2-(piperidin-1-yl)quinazolin-4-amine] | 10 to 50 µM (≈ 3.78 to 18.9 µg/mL) | 
38 | c1ccc(CCCNc2nc(N3CCCCC3)nc3ccccc23)cc1 [Compound 95, N-(3-Phenylpropyl)-2-(piperidin-1-yl)quinazolin-4-amine] | < 10 µM | 
39 | CC(C)(C)C(=O)N1CCN(c2nc(NCc3ccccc3)c3ccccc3n2)CC1 [Compound 57, 1-(4-(4-(Benzylamino)quinazolin-2-yl)piperazin-1-yl)-2,2-dimethylpropan-1-one] | 10 to 50 µM (≈ 4.04 to 20.2 µg/mL) | 
40 | Fc1ccc(CNc2nc(N3CCOCC3)nc3ccccc23)cc1 [Compound 169, N-(4-Fluorobenzyl)-2-morpholinoquinazolin-4-amine] | 10 to 50 µM (≈ 3.38 to 16.9 µg/mL) | 
41 | FC(F)(F)Oc1ccc(CNc2nc(N3CCCCC3)nc3ccccc23)cc1 [Compound 162, 2-(Piperidin-1-yl)-N-(4-(trifluoromethoxy)benzyl)quinazolin-4-amine] | < 10 µM | 
42 | Clc1ccc(CNc2nc(N3CCCCC3)nc3ccccc23)cn1 [Compound 194, N-((6-Chloropyridin-3-yl)methyl)-2-(piperidin-1-yl)quinazolin-4-amine hydrochloride] |  | MIC ([2]; H37RV): 10 to 50 µM
43 | COc1ccc([C@@H](C)Nc2nc(N3CCCCC3)nc3ccccc23)cc1 [Compound 97, (R)—N-(1-(4-Methoxyphenyl)ethyl)-2-(piperidin-1-yl)quinazolin-4-amine] | 10 to 50 µM (≈ 3.62 to 18.1 µg/mL) | 
44 | CN1CCN(c2nc(NCCNc3ccc([N+](=O)[O-])cc3)c3ccccc3n2)CC1 [Compound 11, N^1-(2-(4-Methylpiperazin-1-yl)quinazolin-4-yl)-N^2-(4-nitrophenyl)ethane-1,2-diamine] | 50 to 128 µM (≈ 20.4 to 52.2 µg/mL) | 
45 | Fc1ccc(CNc2nc(Nc3ccc(F)cc3)nc3ccccc23)cc1 [Compound 118, N^4-(4-Fluorobenzyl)-N^2-(4-fluorophenyl)quinazoline-2,4-diamine hydrochloride] | 10 to 50 µM | 
